# Measurements as given in patent publication US9476099B2 (TRUSTEES OF DARTMOUTH COLLEGE, priority 2012, dated 2016).
# Experiments:
# [1] = test system: gene promoters in NT2/D1 cells; assay: Global DNA promoter methylation analysis, HumanMethylation27 BeadChip; assay type: cell-based, human; conditions: 3 day low dose decitabine
# Experimental: However, methylation changes were less robust in the experiments in NT2/D1 cells. Only 12 genes were identified as having significant decreases in promoter methylation. […] These six genes included RIN1, SOX15, TLR4, GPER, TRIM54, and CD164L2.
# DNA methylation analysis was performed in samples in triplicate using the […] […] assay with the HumanMethylation27 BeadChip ([…]) and the BeadChip was scanned on the BeadArray Reader ([…]), according to the manufacturer's instructions. Raw data was normalized and analyzed with Genome Studio software ([…]). The HumanMethylation27 BeadChip assays 27,578 CpGs covering more than 14,000 genes, mostly from promoter regions. […] Hierarchical clustering was performed as stated above. HumanMethylation27 BeadChip data and gene expression microarray data were submitted to NCBI GEO.
# [2] = test system: NT2 cells; assay: Gene set enrichment analysis (GSEA) of microarray data (Table 6); assay type: cell-based, human
# Experimental: Gene set enrichment analysis (GSEA) was performed.
# Expression analysis was performed on the […] HumanHT-12 v3 or […] HumanHT-12 v4 bead chip arrays ([…]) and scanned on the BeadArray Reader ([…]) according to manufacturer's instructions.
# [3] = test system: NT2/D1-R1 cells; assay: Cell-Titre Glo viable cell growth and survival, 3 day decitabine; assay type: cell-based; conditions: 10 nM, FIG. 1
# Experimental: (§1) Indicated doses of decitabine were added fresh each day for three days to exponentially growing cultures. Viable cell growth and survival were measured. Data are normalized to no drug treatment. EC cells are NT2/D1, NT2D1/R1, 833K, 833KCP, and Tera-1. Data are the average of 3 experiments in biological duplicate except for MCF-7 cells, which were assayed twice. Error bars are standard deviation (S.D.).
# (§2) Cell growth and viability of five EC cell lines (NT2/D1, NT2D1/R1, 833K, 833KCP, and Tera-1) were determined, including two cell lines that are cisplatin-resistant (NT2/D1-R1 and 833KCP). Three control somatic tumor cell lines were also tested (HCT116, MCF7 and U2OS). […] Viable cell growth and survival were measured using Cell-Titre Glo (Promega) assays. […] These higher values are similar to the values shown in FIG. 1 for somatic tumor cell lines (MCF7, U2OS and HCT116).
# (§3) NT2/D1, NT2D1-R1, 833K, 833K-CP, Tera-1, U20S, and HCT116 cells were cultured in DMEM with 10% FBS supplemented with glutamine and antibiotics except for MCF7 cells that were cultured in F12-DMEM. The derivation of the NT2/D1-resistant NT2/D1-R1 cell line has been previously described (Curtin et al. 2001. Oncogene 20:2559-2569; Kerley-Hamilton et al. 2007. Biochim. Biophys. Acta 1769:209-219). Cells were treated with the indicated dosages of 5-azadeoxycytidine (5-aza-CdR) for 3 days. This drug was replenished each day. Cisplatin (Bristol Laboratories) treatments were performed at the concentrations and time points indicated. To assess cell proliferation and survival, CELL-TITRE GLO (Promega) assays were performed.
# (§4) Cells were cultured in DMEM media (Gibco) with 10% FBS. Decitabine was added fresh each day. Lentiviral control cells and the stable shRNA DNMT3B knockdown cell line (NT2/D1-R1-sh84) were described previously (Beyrouthy et al. 2009. Cancer Res. 69:9360-9366). DNMT3B knockdown was greater than 90% as confirmed by western blot analysis. Cell proliferation and survival were assessed with the CELL-TITRE GLO assay (Promega). Cell cycle analysis with propidium iodine has been previously described (Kerley-Hamilton et al. 2005. Oncogene 24:6090-6100).
# [4] = test system: NT2/D1 cells; assay: as above; assay type: cell-based; conditions: 72 h, read-out: IC50, growth inhibition
# Experimental: as §1, §2, §3, §4
# [5] = test system: NT2/D1-R1 cells; assay: Cisplatin sensitivity (cell viability) after low dose decitabine pretreatment; assay type: cell-based; conditions: 10 nM 3 days, 24 hour recovery, cisplatin 6 hours, viability 3 days later
# Experimental: (§5) Cell viability was assayed 3 days later. For NT2D1-R1 cells, 10 nM decitabineR was employed. […] Data are the average of biological triplicates and representative of at least two experiments. Error bars are standard error of the mean (SEM).
# (§6) Cell viability was assayed 3 days later. For NT2D1-R1 cells, 10 nM decitabineR was employed. […] Data are the average of biological triplicates and representative of at least two experiments. Error bars are SEM.
# (§7) Five distinct lentiviral shRNAs for DNMT3B (sh84, sh85, sh86, sh87, and sh88) were used to knock down DNMT3B expression. Six potential alternatively spliced isoforms of DNMT3B exist; the most biologically relevant isoforms are variants 1, 2, 3 and 6 (Jones, P. A. and S. B. Baylin. 2007. Cell 128:683-692). […] Western blot analysis of NT2/D1 and NT2/D1-R1 cells was also performed with cells treated with DNMT3B shRNA ([…]) and employing DNMT3B antibody, H-230. The results confirmed the reduced expression of DNMT3B when the shRNA were employed. None of the DNMT3B-specific shRNAs affected levels of DNMT1 or DNMT3A (FIG. 2). […] However, knockdown of DNMT3B by itself had no apparent effect on the growth of NT2/D1 or NT2/D1-R1 cells. […] It had been previously reported that cisplatin causes a global p53-dominant transcriptional response in EC cells (Kerley-Hamilton et al. 2005. Oncogene 24:6090-6100). […]
# [6] = test system: 833K-CP cells; assay: as above; assay type: cell-based; conditions: 2.5 nM 3 days, 24 hour recovery, cisplatin 6 hours, viability 3 days later
# Experimental: as §5, §6, §7
# [7] = test system: EC cell lines (NT2/D1, NT2D1/R1, 833K, 833KCP, and Tera-1); assay: Cell-Titre Glo viable cell growth and survival, all EC cell lines; assay type: cell-based; conditions: 10 to 5000 nM added fresh each day for three days; FIG. 1
# Experimental: as §1, §2
# as §3, with “Cisplatin (Bristol Laboratories) treatments were performed at the concentrations and time points indicated. To assess cell proliferation and survival, CELL-TITRE GLO (Promega) assays were performed.” left out
# [8] = Gene Sets Depleted in NT2 Cells with 3-Day Decitabine Treatment (10 nM)
# [9] = Gene Sets Enriched in NT2 Cells with 3-Day Decitabine Treatment (10 nM)
compound,measurement,setting,value
"Nc1ncn([C@H]2C[C@H](O)[C@@H](CO)O2)c(=O)n1 [decitabine, 5-aza-deoxycytidine]",genes with significant decreases in promoter methylation,[1],12 genes
same,"NES, BENPORATH_ES_1",[2]; [8],2.6981
same,"NES, BENPORATH_ES_2",[2]; [8],2.3953
same,"NES, BHATTACHARYA_EMBRYONIC_STEM_CELL",[2]; [8],2.2132
same,"NES, CONRAD_STEM_CELL",[2]; [8],2.1627
same,"NES, MISSIAGLIA_REGULATED_BY_METHYLATION_DN",[2]; [8],2.1720
same,"NES, MUELLER_PLURINET",[2]; [8],2.2694
same,"NES, PAL_PRMT5_TARGETS_UP",[2]; [8],2.2049
same,"NES, SCHLOSSER_MYC_TARGETS_AND_SERUM_RESPONSE_DN",[2]; [8],2.2821
same,"NES, SCHLOSSER_MYC_TARGETS_REPRESSED_BY_SERUM",[2]; [8],2.4043
same,"NES, SCHUHMACHER_MYC_TARGETS_UP",[2]; [8],2.5662
same,"NES, VSE2F_02",[2]; [8],2.2708
same,"NES, WONG_EMBRYONIC_STEM_CELL_CORE",[2]; [8],2.4279
same,"NES, CONCANNON_APOPTOSIS_BY_EPOXOMICIN_UP",[2]; [9],−2.2139
same,"NES, HAMAI_APOPTOSIS_VIA_TRAIL_DN",[2]; [9],−1.9615
same,"NES, HELLER_SILENCED_BY_METHYLATION_UP",[2]; [9],−1.9604
same,"NES, KERLEY_RESPONSE_TO_CISPLATIN_UP",[2]; [9],−2.4408
same,"NES, KIM_RESPONSE_TO_TSA_AND_DECITABINE_UP",[2]; [9],−1.9665
same,"NES, KYNG_DNA_DAMAGE_BY_UV",[2]; [9],−2.0319
same,"NES, MISSIAGLIA_REGULATED_BY_METHYLATION_UP",[2]; [9],−2.1687
same,"NES, MUELLER_METHYLATED_IN_GLIOBLASTOMA",[2]; [9],−2.0961
same,"NES, RUGO_UV_RESPONSE",[2]; [9],−1.9676
same,inhibition of proliferation versus control,[3],10%
same,IC50,[4],5 to 25 nM
same,effect of low dose decitabine pretreatment on cisplatin-induced growth suppression and toxicity,[5],restored cisplatin-induced growth suppression and toxicity
same,effect of low dose decitabine pretreatment on cisplatin-induced growth suppression and toxicity,[6],restored cisplatin-induced growth suppression and toxicity
same,growth of all EC cell lines,[7],inhibited
